Data published in PubChem BioAssay AID248 (DTP/NCI, 2004).
“And” between values parts separate entries of the source, which are not always exact repeats. Identical values can stand only once. Toxic doses and inconclusive results are not listed. Rule as the data show it: active = T/C of 150% or more; inactive = T/C below 125%.

Test system: L1210 leukemia ip in BDF1 mice, survival T/C
Experiment: NCI In Vivo Anticancer Drug Screen. Data for tumor model L1210 Leukemia (intraperitoneal) in B6D2F1 (BDF1) mice
Conditions: endpoint: mean survival time, higher = longer survival
How it was run: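 Each compound was tested against a transplantable tumor grown in mice. The endpoint was survival, with treated animals benchmarked against vehicle controls as a simple ratio.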

[1] = dose: 100.0 mg/kg/injection, schedule: Q01DX001 (ip), vehicle: saline
[2] = dose: 200.0 mg/kg/injection, schedule: Q01DX001 (ip), vehicle: saline
[3] = dose: 400.0 mg/kg/injection, schedule: Q01DX001 (ip), vehicle: saline
[4] = dose: 100.0 mg/kg/injection, schedule: Q01DX001 (ip), vehicle: Klucel (hydroxypropylcellulose) (HPC)
[5] = dose: 100.0 mg/kg/injection, schedule: Q01DX009 (ip), vehicle: Klucel (hydroxypropylcellulose) (HPC)
[6] = dose: 200.0 mg/kg/injection, schedule: Q01DX001 (ip), vehicle: Klucel (hydroxypropylcellulose) (HPC)
[7] = dose: 200.0 mg/kg/injection, schedule: Q01DX009 (ip), vehicle: Klucel (hydroxypropylcellulose) (HPC)
[8] = dose: 400.0 mg/kg/injection, schedule: Q01DX001 (ip), vehicle: Klucel (hydroxypropylcellulose) (HPC)
[9] = dose: 100.0 mg/kg/injection, schedule: Q01DX009 (ip), vehicle: saline with Tween-80
[10] = dose: 100.0 mg/kg/injection, schedule: Q04DX003 (ip), vehicle: saline with Tween-80
[11] = dose: 200.0 mg/kg/injection, schedule: Q01DX009 (ip), vehicle: saline with Tween-80
[12] = dose: 200.0 mg/kg/injection, schedule: Q04DX003 (ip), vehicle: saline with Tween-80
[13] = dose: 400.0 mg/kg/injection, schedule: Q01DX009 (ip), vehicle: saline with Tween-80
[14] = dose: 400.0 mg/kg/injection, schedule: Q04DX003 (ip), vehicle: saline with Tween-80
[15] = dose: 100.0 mg/kg/injection, schedule: Q01DX001 (ip), vehicle: other
[16] = dose: 200.0 mg/kg/injection, schedule: Q01DX001 (ip), vehicle: other
[17] = dose: 50.0 mg/kg/injection, schedule: Q01DX009 (ip), vehicle: Klucel (hydroxypropylcellulose) (HPC)
[18] = dose: 100.0 mg/kg/injection, schedule: Q04DX003 (ip), vehicle: Klucel (hydroxypropylcellulose) (HPC)
[19] = dose: 200.0 mg/kg/injection, schedule: Q04DX003 (ip), vehicle: Klucel (hydroxypropylcellulose) (HPC)
[20] = dose: 50.0 mg/kg/injection, schedule: Q01DX001 (ip), vehicle: saline

Measured: T/C

O=C(O)C(=O)/C=C/c1cccc([N+](=O)[O-])c1
inactive: [1] 96 % of control | dose: 100.0 mg/kg/injection, schedule: Q01DX009 (ip), vehicle: saline 106 % of control | [2] 96 % of control | dose: 200.0 mg/kg/injection, schedule: Q01DX009 (ip), vehicle: saline 95 % of control | [3] 102 % of control

C=C1C(=O)OC2C(=O)OC(CCCCCCCC)C12 (centres undefined)
inactive: dose: 6.2 mg/kg/injection, schedule: Q04DX002 (ip), vehicle: Klucel (hydroxypropylcellulose) (HPC) 97 % of control | dose: 12.5 mg/kg/injection, schedule: Q04DX002 (ip), vehicle: Klucel (hydroxypropylcellulose) (HPC) 94 % of control | dose: 25.0 mg/kg/injection, schedule: Q04DX002 (ip), vehicle: Klucel (hydroxypropylcellulose) (HPC) 97 % of control and 104 % of control

C[C@H](CCC(=O)O)[C@H]1CC[C@H]2[C@@H]3CCC4=C(O)C(=O)CC[C@]4(C)[C@H]3CC(=O)[C@]12C
inactive: dose: 100.0 mg/kg/injection, schedule: Q01DX001 (sc), vehicle: steriod suspending solution 101 % of control | dose: 200.0 mg/kg/injection, schedule: Q01DX001 (sc), vehicle: steriod suspending solution 98 % of control | dose: 400.0 mg/kg/injection, schedule: Q01DX001 (sc), vehicle: steriod suspending solution 103 % of control

CCOC(=O)C(N)CS (centres undefined)
inactive: [1] 106 % of control | [2] 97 % of control | [3] 101 % of control

O=C1CC(N2CCOCC2)c2ccccc21 (centres undefined)
inactive: [4] 98 % of control | [5] 102 % of control | [6] 92 % of control | [7] 93 % of control | [8] 92 % of control | dose: 400.0 mg/kg/injection, schedule: Q01DX009 (ip), vehicle: Klucel (hydroxypropylcellulose) (HPC) 91 % of control

Cc1ccnc(SC#N)n1
inactive: dose: 5.0 mg/kg/injection, schedule: Q01DX001 (ip), vehicle: other 105 % of control | dose: 10.0 mg/kg/injection, schedule: Q01DX001 (ip), vehicle: other 105 % of control

Cc1ccc(Cl)cc1NC(=O)NCc1cccnc1
inactive: dose: 100.0 mg/kg/injection, schedule: Q01DX001 (ip), vehicle: saline with Tween-80 93 % of control | [9] 103 % of control and 91 % of control | dose: 100.0 mg/kg/injection, schedule: Q04DX002 (ip), vehicle: saline with Tween-80 106 % of control and 88 % of control | [10] 107 % of control | dose: 200.0 mg/kg/injection, schedule: Q01DX001 (ip), vehicle: saline with Tween-80 90 % of control | [11] 104 % of control and 92 % of control | dose: 200.0 mg/kg/injection, schedule: Q04DX002 (ip), vehicle: saline with Tween-80 95 % of control and 89 % of control | [12] 100 % of control | dose: 400.0 mg/kg/injection, schedule: Q01DX001 (ip), vehicle: saline with Tween-80 90 % of control | [13] 96 % of control and 113 % of control | dose: 400.0 mg/kg/injection, schedule: Q04DX002 (ip), vehicle: saline with Tween-80 95 % of control and 91 % of control | [14] 103 % of control

COC(=O)c1[nH]cnc1/N=N/Nc1ccc(Cl)cc1
inactive: dose: 50.0 mg/kg/injection, schedule: Q01DX001 (ip), vehicle: other 103 % of control | [15] 105 % of control | [16] 105 % of control | dose: 400.0 mg/kg/injection, schedule: Q01DX001 (ip), vehicle: other 94 % of control

Cc1ccc2[nH]c(C)c(C3=CC(=O)c4ccccc4C3=O)c2c1
inactive: [15] 97 % of control | [16] 92 % of control

Nc1nc(-c2cc(Br)ccc2N=NN2CCCCC2)nc2ccc(Br)cc12
inactive: dose: 100.0 mg/kg/injection, schedule: Q04DX002 (ip), vehicle: Klucel (hydroxypropylcellulose) (HPC) 86 % of control | dose: 200.0 mg/kg/injection, schedule: Q04DX002 (ip), vehicle: Klucel (hydroxypropylcellulose) (HPC) 89 % of control | dose: 400.0 mg/kg/injection, schedule: Q04DX002 (ip), vehicle: Klucel (hydroxypropylcellulose) (HPC) 99 % of control

Cc1cc(C)n(/N=C/c2ccc(N(C)C)cc2)c(=O)c1C#N
inactive: dose: 100.0 mg/kg/injection, schedule: Q04DX003 (ip), vehicle: saline 95 % of control | dose: 200.0 mg/kg/injection, schedule: Q04DX003 (ip), vehicle: saline 95 % of control | dose: 400.0 mg/kg/injection, schedule: Q04DX003 (ip), vehicle: saline 95 % of control

O=C(O)c1ccccc1C(=O)Nc1cc(Cl)ccc1Cl
inactive: [17] 94 % of control | [5] 98 % of control | [18] 98 % of control | [7] 93 % of control | [19] 89 % of control

Cc1n[nH]c(C)c1C(C)C
inactive: [20] 103 % of control | [1] 101 % of control | [2] 86 % of control

CCN(CC)c1ccc(/C=N\N(C)C)cc1
inactive: [17] 97 % of control | [5] 101 % of control | [7] 106 % of control

CC1([N+](=O)[O-])COP(=O)(NCc2ccccc2)OC1 (centres undefined)
inactive: dose: 50.0 mg/kg/injection, schedule: Q01DX001 (ip), vehicle: carboxymethylcellulose (CMC) 97 % of control | dose: 100.0 mg/kg/injection, schedule: Q01DX001 (ip), vehicle: carboxymethylcellulose (CMC) 107 % of control | dose: 200.0 mg/kg/injection, schedule: Q01DX001 (ip), vehicle: carboxymethylcellulose (CMC) 109 % of control | dose: 400.0 mg/kg/injection, schedule: Q01DX001 (ip), vehicle: carboxymethylcellulose (CMC) 97 % of control

c1ccc(COC2NCCN2Cc2ccccc2)cc1 (centres undefined)
inactive: [1] 98 % of control | [2] 101 % of control | [3] 101 % of control

Cc1ccc(C)c(-n2c(-c3ccc(Br)cc3)csc2=NC(=O)c2ccccc2F)c1
inactive: [9] 102 % of control | [10] 101 % of control | [11] 101 % of control | [12] 98 % of control | [13] 93 % of control | [14] 102 % of control

O=C1CCCC1C(=O)Nc1cccc2ccccc12 (centres undefined)
inactive: [20] 97 % of control | [1] 103 % of control | [2] 97 % of control | [3] 97 % of control

ClC1(Cl)C2CCC3(CC21)OCCO3 (centres undefined)
inactive: dose: 50.0 mg/kg/injection, schedule: Q04DX003 (ip), vehicle: Klucel (hydroxypropylcellulose) (HPC) 115 % of control | [4] 114 % of control | [18] 103 % of control | [6] 106 % of control | [19] 93 % of control | [8] 101 % of control | dose: 400.0 mg/kg/injection, schedule: Q04DX003 (ip), vehicle: Klucel (hydroxypropylcellulose) (HPC) 106 % of control

COc1ccccc1CNc1ncnc2nc[nH]c12
inactive: dose: 100.0 mg/kg/injection, schedule: Q04DX003 (ip), vehicle: acetone 97 % of control | dose: 200.0 mg/kg/injection, schedule: Q04DX003 (ip), vehicle: acetone 94 % of control | dose: 400.0 mg/kg/injection, schedule: Q04DX003 (ip), vehicle: acetone 107 % of control

C#CCSC(=S)NNc1ccccc1
inactive: [9] 95 % of control | [10] 101 % of control | [11] 97 % of control | [12] 97 % of control | [14] 93 % of control
